Laboratory results reported in EPA's aquatic toxicity sets.

Experiments:
Pimephales promelas = experiment: 96 h LC50 (-log10 mol/L); higher = more toxic
Tetrahymena pyriformis = experiment: 48 h IGC50 (-log10 mol/L); higher = more toxic

SMILES | 96 h LC50 (-log10 mol/L) (Pimephales promelas) | 48 h IGC50 (-log10 mol/L) (Tetrahymena pyriformis)
CCCCC(C)=O | 2.37 | 1.66
CCOc1cc(C=O)ccc1O | 3.28 | 3.02
CC(=O)c1ccncc1 | 2.86 | 2.13
N#Cc1cccc([N+](=O)[O-])c1 | 3.39 | 3.45
OCCCc1cccnc1 | 2.96 | 2.16
Nc1cccc(OCc2ccccc2)c1 | 4.34 | 3.88
CCCCCCCCC#N | 4.3 | 3.62
CN(C)c1ccccn1 | 2.98 | 2.45
O=Cc1cccc([N+](=O)[O-])c1 | 4.42 | 3.11
Cc1ccncc1 | 2.36 | 2.12
CCCCCCCCCCC(C)=O | 5.19 | 4.67
CC(C)(CC(=O)O)CC(=O)O | 1.05 | 2.34
Nc1ccc(F)cc1C(F)(F)F | 3.78 | 2.98
CCC(C)(C)c1ccc(O)cc1 | 4.8 | 4.23
CCCCOC(C)=O | 3.81 | 2.51
CN1CCNCC1 | 1.64 | 2.04
C=CCC#N | 2.57 | 1.52
C=C(C)C(=O)OCc1ccccc1 | 4.58 | 3.65
C=CC(=O)OC1CCCCC1 | 5.02 | 3.76
CC1(C)OCC(CO)O1 (stereo not drawn) | 0.898 | 1.21
O/N=C/c1ccccc1O | 4.63 | 3.25
Brc1nc(Br)c(Br)[nH]1 | 4.7 | 4.43
CC(=O)CCC=C(C)C | 3.17 | 2.55
Cc1cc(C)c(C#N)c(=O)[nH]1 | 2.98 | 2.3
CCCCOC(=O)CCC | 4.09 | 3.52

SMILES | 96 h LC50 (-log10 mol/L) (Pimephales promelas) | 48 h IGC50 (-log10 mol/L) (Tetrahymena pyriformis)
CC(C)O | 0.778 | 1.12
c1ccc(-c2ccncc2)cc1 | 3.98 | 3.66
OCCCCl | 2.07 | 1.6
Cc1ccc([N+](=O)[O-])c(O)c1 | 3.51 | 3.59
Cc1cccc(O)c1 | 3.29 | 2.92
O=Cc1cc(Br)ccc1O | 5.19 | 4.11
CCCOC(C)=O | 3.23 | 1.76
NCCN1CCNCC1 | 1.77 | 2.21
O=Cc1cccnc1 | 3.81 | 2.87
Cc1c[nH]c2ccccc12 | 4.17 | 3.37
O=C1CCCCC1 | 2.19 | 1.77
Nc1ccc(Cl)c(Cl)c1 | 4.32 | 4.37
CC(=O)CC(C)C | 2.27 | 1.79
ClC(Cl)(Cl)Cl | 3.57 | 2.98
C=CCCl | 3.55 | 2.06
CCOC(=O)C(Cc1ccccc1)C(=O)OCC | 4.66 | 3.71
Oc1cccnc1Cl | 2.32 | 2.99
CCC(C)N (stereo not drawn) | 2.42 | 2.33
CCCCCCCCCCCC(C)=O | 5.74 | 5.12
C=CCN=C=S | 6.06 | 5.06
CC(=O)c1ccc(Cl)cc1Cl | 4.21 | 3.62
c1ccoc1 | 3.05 | 1.35
Cc1cccc(O)c1[N+](=O)[O-] | 3.52 | 3.61
CN(C)c1ccc(/C=C/C=O)cc1 | 4.47 | 3.52
c1cc(CCc2ccncc2)ccn1 | 3.09 | 2.97

SMILES | 96 h LC50 (-log10 mol/L) (Pimephales promelas) | 48 h IGC50 (-log10 mol/L) (Tetrahymena pyriformis)
CC(C)(C)c1cc(C(C)(C)C)c(O)c(C(C)(C)C)c1 | 6.63 | 3.36
CC(=O)c1ccccc1 | 2.87 | 2.54
CCCCCCCCC(C)=O | 4.51 | 3.58
CC=NO | 2.89 | 1.39
O=Cc1cc(Cl)ccc1O | 5.31 | 4.01
Cc1ccc(C)o1 | 3.13 | 2.52
CCCCOCCOC(=O)C(C)Oc1cc(Cl)c(Cl)cc1Cl (stereo not drawn) | 5.57 | 
CCOC(=O)C(C)Oc1ccc(Oc2nc3ccc(Cl)cc3o2)cc1 (stereo not drawn) | 4.71 | 
Cc1ccccc1F | 3.75 | 
CCCCOCC(C)OC(=O)C(C)Oc1cc(Cl)c(Cl)cc1Cl (stereo not drawn) | 4.73 | 
Oc1c(Cl)cc(Cl)c(Cl)c1Cc1c(O)c(Cl)cc(Cl)c1Cl | 7.29 | 
CCCCCCCCCCCCCN | 6.48 | 
C=C(CCl)CCl | 5.82 | 
CCN(CC)c1ccc(C=O)c(O)c1 | 4.56 | 
Cc1ccc(N=C=O)cc1N=C=O | 3.02 | 
CCOP(=S)(Oc1ccc([N+](=O)[O-])cc1)c1ccccc1 (stereo not drawn) | 6.21 | 
CC(C)Nc1nc(Cl)nc(NC2CC2)n1 | 4.8 | 
Nc1ccc(O)c([N+](=O)[O-])c1 | 3.63 | 
CC(C)(C)c1ccc(CSc2cnn(C(C)(C)C)c(=O)c2Cl)cc1 | 8.2 | 
CC(C)=CC1C(C(=O)OCc2ccc(C)cc2C)C1(C)C (stereo not drawn) | 6.67 | 
CC1CNCCN1 (stereo not drawn) | 1.65 | 
C=C(C)C(=C)C | 4.08 | 
O=S(Cc1ccccc1)Cc1ccccc1 | 3.46 | 
Cc1cc(O)c([N+](=O)[O-])cc1[N+](=O)[O-] | 4.79 | 
C#CC(C)(O)CCC(C)C (stereo not drawn) | 3.46 | 

SMILES | 96 h LC50 (-log10 mol/L) (Pimephales promelas) | 48 h IGC50 (-log10 mol/L) (Tetrahymena pyriformis)
CC1(C)NC(=O)NC1=O | 0.89 | 
NNC(N)=S | 3.64 | 
O=C(O)[C@@H]1[C@H](C(=O)O)[C@H]2CC[C@@H]1O2 | 4.08 | 
ON=C1CCCCC1 | 2.74 | 
CC12CCC(C(Br)C1=O)C2(C)C (stereo not drawn) | 3.53 | 
CNC(=O)ON=C(SC)C(=O)N(C)C | 4.51 | 
ClC1=C(Cl)[C@]2(Cl)[C@H]3[C@H]([C@@H]4C=C[C@H]3C4)[C@@]1(Cl)C2(Cl)Cl | 7.09 | 
Cc1cc(Cl)ccc1OCCCC(=O)O | 4.26 | 
C=CCC1=C(C)[C@@H](OC(=O)[C@@H]2[C@@H](C=C(C)C)C2(C)C)CC1=O | 6.67 | 
O=[N+]([O-])c1ccc(O)cc1C(F)(F)F | 4.51 | 
C1C2CC3CC1CC(C2)C3 | 5.68 | 
Nc1ccccc1C(=O)c1ccc(Cl)cc1 | 5.04 | 
OCc1ccoc1 | 2.29 | 
CCCCO | 1.59 | 
OCCOCCO | 0.15 | 
CCCCCC(C)=O | 2.94 | 
CC1CNCC(C)O1 (stereo not drawn) | 2.47 | 
CN(C)N=O | 1.9 | 
CN(C)C(=O)Nc1ccc(Cl)c(Cl)c1 | 4.21 | 
CCOC(=O)C(F)(F)F | 1.15 | 
CCCCN | 2.44 | 
CC(C)[C@@H]1CC[C@@H](C)C[C@H]1O | 3.92 | 
Cc1c(Cl)cccc1NC=O | 3.56 | 
O=[N+]([O-])c1ccc(/C=C/c2cccc(CO)n2)o1 | 5.48 | 
O=C(CCl)c1ccc(Cl)cc1 | 4.21 | 

SMILES | 96 h LC50 (-log10 mol/L) (Pimephales promelas) | 48 h IGC50 (-log10 mol/L) (Tetrahymena pyriformis)
COC(=O)C1C(C(=O)OC)C2(Cl)C(Cl)=C(Cl)C1(Cl)C2(Cl)Cl (stereo not drawn) | 5.38 | 
N#Cc1ccccc1C(F)(F)F | 3.61 | 
Cc1cc2cccc(C)c2cc1C | 4.42 | 
Cc1c([N+](=O)[O-])cc(N)cc1[N+](=O)[O-] | 4.46 | 
CCOC(=O)[C@H](C)N(C(=O)c1ccccc1)c1ccc(Cl)c(Cl)c1 | 5.68 | 
CC(C)(c1cc(Cl)c(O)c(Cl)c1)c1cc(Cl)c(O)c(Cl)c1 | 5.44 | 
Cc1c(Cl)cc(C(C)(C)C)c(O)c1C(=O)Nc1ccc([N+](=O)[O-])cc1Cl | 7.69 | 
c1ccc(SSc2ccccc2)cc1 | 6.3 | 
C=C1[C@H]2CC[C@@H]3[C@H]2C(C)(C)CCC[C@]13C | 4.3 | 
CCOC(CN(C)CC(OCC)OCC)OCC | 2.62 | 
CCSCCCCSCC | 4.47 | 
N#Cc1cccc(C(F)(F)F)c1 | 3.56 | 
CCNS(=O)(=O)C(F)(F)C(F)(F)C(F)(F)C(F)(F)C(F)(F)C(F)(F)C(F)(F)C(F)(F)F | 6.45 | 
COC(=O)c1ccc(O)cc1O | 3.6 | 
COc1ccc(C(c2ccc(OC)cc2)C(Cl)(Cl)Cl)cc1 | 7.61 | 
COc1cccc(OC)c1C | 3.88 | 
CCCCCCCCCCCCN | 6.25 | 
CCN(CC)CCCC(C)=O | 2.67 | 
COP(=O)(O)OC | 3.85 | 
COc1ccc(OC)c(C(=O)CBr)c1 | 6.65 | 
BrCCCBr | 5.05 | 
CCOP(=S)(OCC)Oc1nc(Cl)c(Cl)cc1Cl | 6.36 | 
